# Laboratory results taken from patent publication US20220133837A1, “PEPTIDE INHIBITORS OF NF KAPPA B AND USE THEREOF IN TREATMENT OF COVID-19 AND INFLAMMATORY DISEASES” (priority 2020, published 2022).
# Read-outs that look alike come from different tables or passages of the source. Non-standard residues stand in square brackets, D forms with d. Residues, ends and D or L forms follow the SMILES beside them. No end group written: not given here.
# Assays:
# [1] = system: ACE2 receptor; type: cell-based, human; settings: control cells set at 1.000, cells harvested after 24 hours
# [2] = system: TMPRSS2; type: cell-based, human; settings: control cells set at 1.000, cells harvested after 24 hours
# [3] = system: NFKB1; type: cell-based, human; settings: control cells set at 1.000, cells harvested after 24 hours
# [4] = system: NFKB2; type: cell-based, human; settings: control cells set at 1.000, cells harvested after 24 hours
# [5] = system: TNF; type: cell-based, human; settings: control cells set at 1.000, cells harvested after 24 hours
# [6] = system: TNFRSF1A; type: cell-based, human; settings: control cells set at 1.000, cells harvested after 24 hours
# [7] = system: TNFRSF9; type: cell-based, human; settings: control cells set at 1.000, cells harvested after 24 hours
# [8] = system: ILIA; type: cell-based, human; settings: control cells set at 1.000, cells harvested after 24 hours
# [9] = system: IL1B; type: cell-based, human; settings: control cells set at 1.000, cells harvested after 24 hours
# [10] = system: IL6; type: cell-based, human; settings: control cells set at 1.000, cells harvested after 24 hours
# [11] = system: CCL2; type: cell-based, human; settings: control cells set at 1.000, cells harvested after 24 hours
# [12] = system: CCL5; type: cell-based, human; settings: control cells set at 1.000, cells harvested after 24 hours
# [13] = system: CXCL8; type: cell-based, human; settings: control cells set at 1.000, cells harvested after 24 hours
# [14] = system: carrageenan (CAR) induced inflammation model; test: Carrageenan (CAR) induced paw edema model; type: in vivo; settings: rat, peptide 70 ng, 1 nanomole injected 30 minutes after CAR; for Edema, change in paw volume after CAR injection: sub-plantar CAR 100 μL of 1% suspension, plethysmometer hourly for 24 h, versus control animals
# Source text: The anti-inflammatory activity of YMAP[D]EV (SEQ ID NO:116) was also examined in a classical carrageenan (CAR) induced inflammation model (Ivan G. Otterness, Peter F. Moore, Carrageenan foot edema test, Methods in Enzymology, Academic Press, Volume 162, 1988, Pages 320-327, (see URL www.sciencedirect.com/science/article/pii/0076687988620866); Fehrenbacher J C et al., Models of inflammation: Carrageenan- or complete Freund's Adjuvant (CFA)-induced edema and hypersensitivity in the rat. Curr Protoc Pharmacol. 2012 March; Chapter 5m Unit5.4, doi:10.1002/0471141755.ph0504s56. PMID: 22382999; PMCID: PMC4683998.). Paw edema was induced by a sub-plantar injection of CAR (100 μL of a 1% suspension in 0.85% saline). In the treatment group, YMAP[D]EV (SEQ ID NO:116) (70 ng, 1 nanomole) was injected 30 minutes after CAR injection. Changes in paw volume were measured using a plethysmometer immediately before CAR injection, and then at hourly intervals for 24 h. Edema was expressed as change in paw volume (mL) after CAR injection relative to the pre-injection value for each rat.
molecule,measurement,setting,value
"CSCC[C@H](NC(=O)[C@@H](N)Cc1ccc(O)cc1)C(=O)N[C@@H](C)C(=O)N1CCC[C@H]1C(=O)N[C@H](CCC(=O)O)C(=O)N[C@H](C(=O)O)C(C)C [PEP2, L-tyrosyl-L-methionyl-L-alanyl-L-prolyl-D-glutamyl-L-valine] (H-YMAP[dE]V-OH)","ACE2 receptor RNA expression, ratio of treated cells to control cells",[1]; DriverMap gene analysis,1.000
same,"TMPRSS2 RNA expression, ratio of treated cells to control cells",[2]; DriverMap gene analysis,1.000
same,"NFKB1 RNA expression, ratio of treated cells to control cells",[3]; DriverMap gene analysis,0.243
same,"NFKB2 RNA expression, ratio of treated cells to control cells",[4]; DriverMap gene analysis,0.138
same,"TNF RNA expression, ratio of treated cells to control cells",[5]; DriverMap gene analysis,0.015
same,"TNFRSF1A RNA expression, ratio of treated cells to control cells",[6]; DriverMap gene analysis,0.752
same,"TNFRSF9 RNA expression, ratio of treated cells to control cells",[7]; DriverMap gene analysis,0.007
same,"ILIA RNA expression, ratio of treated cells to control cells",[8]; DriverMap gene analysis,0.260
same,"IL1B RNA expression, ratio of treated cells to control cells",[9]; DriverMap gene analysis,0.010
same,"IL6 RNA expression, ratio of treated cells to control cells",[10]; DriverMap gene analysis,0.057
same,"CCL2 RNA expression, ratio of treated cells to control cells",[11]; DriverMap gene analysis,0.059
same,"CCL5 RNA expression, ratio of treated cells to control cells",[12]; DriverMap gene analysis,0.0003
same,"CXCL8 RNA expression, ratio of treated cells to control cells",[13]; DriverMap gene analysis,0.0052
same,Duration of the effect on edema,[14]; 24-hour period of observation,≥ 24 h
same,"Edema, change in paw volume after CAR injection",[14],marked decrease in edema within two hours
"ANVAENA [PEP1, L-alanyl-L-asparaginyl-L-valyl-L-alanyl-L-glutamyl-L-asparaginyl-L-alanine]","ACE2 receptor RNA expression, ratio of treated cells to control cells",[1]; Affymetrix gene arrays,0.632
same,"TMPRSS2 RNA expression, ratio of treated cells to control cells",[2]; Affymetrix gene arrays,0.525
same,"NFKB1 RNA expression, ratio of treated cells to control cells",[3]; Affymetrix gene arrays,0.927
same,"NFKB2 RNA expression, ratio of treated cells to control cells",[4]; Affymetrix gene arrays,0.851
same,"TNF RNA expression, ratio of treated cells to control cells",[5]; Affymetrix gene arrays,0.349
same,"TNFRSF1A RNA expression, ratio of treated cells to control cells",[6]; Affymetrix gene arrays,1.415
same,"TNFRSF9 RNA expression, ratio of treated cells to control cells",[7]; Affymetrix gene arrays,1.136
same,"ILIA RNA expression, ratio of treated cells to control cells",[8]; Affymetrix gene arrays,0.036
same,"IL1B RNA expression, ratio of treated cells to control cells",[9]; Affymetrix gene arrays,0.691
same,"IL6 RNA expression, ratio of treated cells to control cells",[10]; Affymetrix gene arrays,1.135
same,"CCL2 RNA expression, ratio of treated cells to control cells",[11]; Affymetrix gene arrays,1.298
same,"CCL5 RNA expression, ratio of treated cells to control cells",[12]; Affymetrix gene arrays,0.456
same,"CXCL8 RNA expression, ratio of treated cells to control cells",[13]; Affymetrix gene arrays,1.135
same,"Edema, change in paw volume after CAR injection",[14],nearly identical data
